Molecules are shown by their SMILES.

Assay [1] deals with GDP-bound KRAS wild-type protein (Homo sapiens, UniProt P01116). As to the kind of experiment: Binding to KRAS by surface plasmon resonance (SPR), Single Cycle Kinetics. The following applies: SPR, Single Cycle Kinetics, GDP-bound KRAS wild-type protein; read-out: KRAS KD. (In general: Surface plasmon resonance follows binding to a sensor surface in real time, without labels.)
The target in assay [2] is GDP-bound NRAS wild-type protein (Homo sapiens, UniProt P01111). As to the kind of experiment: Binding to NRAS by surface plasmon resonance (SPR), Single Cycle Kinetics. Conditions: ratio of KD for GDP-bound NRAS wild-type protein to KD for KRAS, SPR.
Sequence of GDP-bound NRAS wild-type protein (P01111 whole entry): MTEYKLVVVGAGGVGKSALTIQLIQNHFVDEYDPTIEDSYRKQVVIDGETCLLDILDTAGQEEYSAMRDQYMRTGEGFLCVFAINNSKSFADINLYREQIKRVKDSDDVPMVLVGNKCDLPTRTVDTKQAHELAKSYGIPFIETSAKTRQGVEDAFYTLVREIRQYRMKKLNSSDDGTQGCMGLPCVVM
The target of assay [3] is GDP-bound HRAS wild-type protein (Homo sapiens, UniProt P01112). As to the kind of experiment: Binding to HRAS by surface plasmon resonance (SPR), Single Cycle Kinetics. Conditions: ratio of KD for GDP-bound HRAS wild-type protein to KD for KRAS, SPR.
Sequence of GDP-bound HRAS wild-type protein (P01112 whole entry): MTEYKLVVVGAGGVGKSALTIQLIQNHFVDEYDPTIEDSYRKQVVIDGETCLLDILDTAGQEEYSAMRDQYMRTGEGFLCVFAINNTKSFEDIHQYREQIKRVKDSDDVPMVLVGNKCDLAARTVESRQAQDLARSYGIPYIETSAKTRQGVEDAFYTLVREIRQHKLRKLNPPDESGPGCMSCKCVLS
The subject of assay [4] is human lung cancer strain NCI-H441. As to the kind of experiment: cells. Conditions: NCI-H441, 96 h, read-out: NCI-H441 IC50 (nM), NCI-H441 cell proliferation, 4 days, CellTiter-Glo. On the technique in general: In ATP-based viability assays light output follows the ATP content of the culture.
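For IC50 in this document: cell proliferation inhibition after four days measured by CellTiter-Glo.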

Sequence of GDP-bound KRAS wild-type protein (P01116 whole entry): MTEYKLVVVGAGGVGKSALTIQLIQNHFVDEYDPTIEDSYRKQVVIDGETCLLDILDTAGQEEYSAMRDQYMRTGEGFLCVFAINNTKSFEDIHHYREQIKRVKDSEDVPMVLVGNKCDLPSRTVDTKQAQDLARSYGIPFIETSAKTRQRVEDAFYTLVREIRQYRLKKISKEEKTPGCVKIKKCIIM

Usually Kd stands for the free concentration of one partner at which half of the binding sites on the other are occupied at equilibrium, for simple one-to-one binding. On to `CC[C@H](C)[C@@H]1NC(=O)[C@H](CC2CCC2)N(C)C(=O)C[C@@H](C(=O)N(C)C)N(C)C(=O)[C@H](C2CCCC2)N(C)C(=O)C2(CCC2)N(C)C(=O)[C@@H]2CCCN2C(=O)[C@H](CCc2cc(F)c(C(F)(F)F)c(F)c2)NC(=O)CN(C)C(=O)[C@H](Cc2ccc(C)cc2)N2CC/C=C\C[C@@H](C2=O)N(C)C(=O)CN(C)C1=O` [PP1802], for which, in assay [1], the Kd was determined as 0.082 nM. Moreover, the “NRAS/KRAS (KD ratio)” value in assay [2] is “A (a compound having 10 or more and less than 20 is denoted as A)”. Besides, the “HRAS/KRAS (KD ratio)” value in assay [3] was “B (a compound having 3 or more and less than 10 is denoted as B)”. Moreover, the IC50 in assay [4] came out at 5.8 nM.

Turning to `CCO[C@@H]1C[C@H]2C(=O)N(C)C3(CCCC3)C(=O)N(C)[C@@H](C3CCCC3)C(=O)N(C)[C@H](C(=O)N(C)C)CC(=O)N(C)[C@@H](CC)C(=O)N[C@@H]([C@@H](C)CC)C(=O)N(C)CC(=O)N(C)[C@H]3C/C=C\CCN(C3=O)[C@@H](Cc3ccc(C(F)(F)F)cc3)C(=O)N(C)CC(=O)N[C@@H](CCc3cc(F)c(C(F)(F)F)c(F)c3)C(=O)N2C1` [PP1804], the dissociation constant (Kd) in assay [1] came out at 0.056 nM. Moreover, the “NRAS/KRAS (KD ratio)” value in assay [2] was “A (a compound having 10 or more and less than 20 is denoted as A)”. Further, the “HRAS/KRAS (KD ratio)” value in assay [3] is “A (a compound having 10 or more and less than 20 is denoted as A)”. Also, the IC50 in assay [4] turned out to be 3.5 nM.

On to `CC[C@H](C)[C@@H]1NC(=O)[C@H](CC)N(C)C(=O)C[C@@H](C(=O)N(C)C)N(C)C(=O)[C@H](C2CCCC2)N(C)C(=O)C2(CCCC2)N(C)C(=O)[C@@H]2CCCN2C(=O)[C@H](CCc2cc(F)c(C(F)(F)F)c(F)c2)NC(=O)CN(C)C(=O)[C@H](Cc2ccc(C(F)(F)F)cc2)N2CC/C=C\C[C@@H](C2=O)N(C)C(=O)CN(C)C1=O` [PP1805], for which the Kd in assay [1] was 0.071 nM. Moreover, in assay [2], the “NRAS/KRAS (KD ratio)” value was “A (a compound having 10 or more and less than 20 is denoted as A)”. Besides, the “HRAS/KRAS (KD ratio)” value in assay [3] was “A (a compound having 10 or more and less than 20 is denoted as A)”. Besides, the IC50 in assay [4] turned out to be 7 nM.

`CCO[C@@H]1C[C@H]2C(=O)N(C)C3(CCCC3)C(=O)N(C)[C@@H](C3CCCC3)C(=O)N(C)[C@H](C(=O)N(C)C)CC(=O)N(C)[C@@H](CC)C(=O)N[C@@H]([C@@H](C)CC)C(=O)N(C)CC(=O)N(C)[C@H]3C/C=C\CCN(C3=O)[C@@H](Cc3ccc(C)cc3)C(=O)N(C)CC(=O)N[C@@H](CCc3cc(F)c(C(F)(F)F)c(F)c3)C(=O)N2C1` [PP1806]: the Kd in assay [1] stood at 0.06 nM. In addition, in assay [2], the “NRAS/KRAS (KD ratio)” value is “A (a compound having 10 or more and less than 20 is denoted as A)”. Moreover, the “HRAS/KRAS (KD ratio)” value in assay [3] was “B (a compound having 3 or more and less than 10 is denoted as B)”. Besides, the IC50 in assay [4] worked out at 4 nM.

As for `CC[C@H](C)[C@@H]1NC(=O)[C@H](CC)N(C)C(=O)C[C@@H](C(=O)N(C)C)N(C)C(=O)[C@H](C2CCCC2)N(C)C(=O)C2(CCCC2)N(C)C(=O)[C@@H]2CCCN2C(=O)[C@H](CCc2cc(F)c(C(F)(F)F)c(F)c2)NC(=O)CN(C)C(=O)[C@H](Cc2ccc(C)cc2)N2CC/C=C\C[C@@H](C2=O)N(C)C(=O)CN(C)C1=O` [PP1807], the dissociation constant Kd in assay [1] was determined as 0.062 nM. Also, the “NRAS/KRAS (KD ratio)” value in assay [2] is “A (a compound having 10 or more and less than 20 is denoted as A)”. The “HRAS/KRAS (KD ratio)” value in assay [3] was “B (a compound having 3 or more and less than 10 is denoted as B)”. In assay [4], the IC50 was 5 nM.

Consider `CCO[C@@H]1C[C@H]2C(=O)N(C)C3(CCCC3)C(=O)N(C)[C@@H](C3CCCC3)C(=O)N(C)[C@H](C(=O)N(C)C)CC(=O)N(C)[C@@H](C3CC3)C(=O)N[C@@H]([C@@H](C)CC)C(=O)N(C)CC(=O)N(C)[C@H]3C/C=C\CCN(C3=O)[C@@H](Cc3ccc(C)cc3)C(=O)N(C)CC(=O)N[C@@H](CCc3cc(F)c(C(F)(F)F)c(F)c3)C(=O)N2C1` [PP1808], for which the Kd in assay [1] was 0.084 nM. Besides, the “NRAS/KRAS (KD ratio)” value in assay [2] was “A (a compound having 10 or more and less than 20 is denoted as A)”. Further, the “HRAS/KRAS (KD ratio)” value in assay [3] is “B (a compound having 3 or more and less than 10 is denoted as B)”. Also, the IC50 in assay [4] is 8.8 nM.

With `CC[C@H](C)[C@@H]1NC(=O)[C@H](C2CC2)N(C)C(=O)C[C@@H](C(=O)N(C)C)N(C)C(=O)[C@H](C2CCCC2)N(C)C(=O)C2(CCCC2)N(C)C(=O)[C@@H]2CCCN2C(=O)[C@H](CCc2cc(F)c(C(F)(F)F)c(F)c2)NC(=O)CN(C)C(=O)[C@H](Cc2ccc(C)cc2)N2CC/C=C\C[C@@H](C2=O)N(C)C(=O)CN(C)C1=O` [PP1809], the dissociation constant (Kd) in assay [1] was found to be 0.12 nM. Further, the “NRAS/KRAS (KD ratio)” value in assay [2] was “A (a compound having 10 or more and less than 20 is denoted as A)”. Besides, the “HRAS/KRAS (KD ratio)” value in assay [3] was “B (a compound having 3 or more and less than 10 is denoted as B)”. Moreover, the IC50 in assay [4] is 22.4 nM.

As for `CCO[C@@H]1C[C@H]2C(=O)N(C)C3(CCCC3)C(=O)N(C)[C@@H](C3CCCC3)C(=O)N(C)[C@H](C(=O)N(C)C)CC(=O)N(C)[C@@H](CC)C(=O)N[C@@H]([C@@H](C)CC)C(=O)N3CCC[C@H]3C(=O)N(C)[C@H]3C/C=C\CCN(C3=O)[C@@H](Cc3ccc(C)cc3)C(=O)N(C)CC(=O)N[C@@H](CCc3cc(F)c(C(F)(F)F)c(F)c3)C(=O)N2C1` [PP1810], in assay [1], the Kd turned out to be 0.16 nM. Besides, the “NRAS/KRAS (KD ratio)” value in assay [2] was “A (a compound having 10 or more and less than 20 is denoted as A)”. For the same compound, the “HRAS/KRAS (KD ratio)” value in assay [3] is “B (a compound having 3 or more and less than 10 is denoted as B)”. Also, the IC50 in assay [4] came to 4.6 nM.

`CC[C@H](C)[C@@H]1NC(=O)[C@H](CC)N(C)C(=O)C[C@@H](C(=O)N(C)C)N(C)C(=O)[C@H](C2CCCC2)N(C)C(=O)C2(CCCC2)N(C)C(=O)[C@@H]2CCCN2C(=O)[C@H](CCc2cc(F)c(C(F)(F)F)c(F)c2)NC(=O)CN(C)C(=O)[C@H](Cc2ccc(C)cc2)N2CC/C=C\C[C@@H](C2=O)N(C)C(=O)[C@@H]2CCCN2C1=O` [PP1811]: the Kd in assay [1] was found to be 0.23 nM. The “NRAS/KRAS (KD ratio)” value in assay [2] is “A (a compound having 10 or more and less than 20 is denoted as A)”. For the same compound, in assay [3], the “HRAS/KRAS (KD ratio)” value is “B (a compound having 3 or more and less than 10 is denoted as B)”. The IC50 in assay [4] turned out to be 14.3 nM.

For `CC[C@H](C)[C@@H]1NC(=O)[C@H](CC)N(C)C(=O)C[C@@H](C(=O)N(C)C)N(C)C(=O)[C@H](C2CCCC2)N(C)C(=O)C2(CCCC2)N(C)C(=O)[C@@H]2C[C@@H](C)CN2C(=O)[C@H](CCc2cc(F)c(C(F)(F)F)c(F)c2)NC(=O)CN(C)C(=O)[C@H](Cc2ccc(C)cc2)N2CC/C=C\C[C@@H](C2=O)N(C)C(=O)CN(C)C1=O` [PP1812], the Kd in assay [1] stood at 0.059 nM. Also, the “NRAS/KRAS (KD ratio)” value in assay [2] was “A (a compound having 10 or more and less than 20 is denoted as A)”. The “HRAS/KRAS (KD ratio)” value in assay [3] is “A (a compound having 10 or more and less than 20 is denoted as A)”. The IC50 in assay [4] was found to be 7.8 nM.

`CC[C@H](C)[C@@H]1NC(=O)[C@H](C2CC2)N(C)C(=O)C[C@@H](C(=O)N(C)C)N(C)C(=O)[C@H](C2CCCC2)N(C)C(=O)C2(CCCC2)N(C)C(=O)[C@@H]2C[C@@H](C)CN2C(=O)[C@H](CCc2cc(F)c(C(F)(F)F)c(F)c2)NC(=O)CN(C)C(=O)[C@H](Cc2ccc(C)cc2)N2CC/C=C\C[C@@H](C2=O)N(C)C(=O)CN(C)C1=O` [PP1813]: the equilibrium dissociation constant (Kd) in assay [1] stood at 0.12 nM. In assay [2], the “NRAS/KRAS (KD ratio)” value was “A (a compound having 10 or more and less than 20 is denoted as A)”. The “HRAS/KRAS (KD ratio)” value in assay [3] is “B (a compound having 3 or more and less than 10 is denoted as B)”. In assay [4], the IC50 came out at 22.6 nM.
